Results on two molecules are retold here after BindingDB's records for PubMed 11082457 (Centre De Recherches De Croissy, 2000).

Where “and” joins values, the source holds several entries; their conditions need not be identical. Equal values may be shown once.

Experiment [1] concerns the target T1, Alpha-2C adrenergic receptor (Homo sapiens, UniProt P18825).
T1 sequence (P18825 whole entry): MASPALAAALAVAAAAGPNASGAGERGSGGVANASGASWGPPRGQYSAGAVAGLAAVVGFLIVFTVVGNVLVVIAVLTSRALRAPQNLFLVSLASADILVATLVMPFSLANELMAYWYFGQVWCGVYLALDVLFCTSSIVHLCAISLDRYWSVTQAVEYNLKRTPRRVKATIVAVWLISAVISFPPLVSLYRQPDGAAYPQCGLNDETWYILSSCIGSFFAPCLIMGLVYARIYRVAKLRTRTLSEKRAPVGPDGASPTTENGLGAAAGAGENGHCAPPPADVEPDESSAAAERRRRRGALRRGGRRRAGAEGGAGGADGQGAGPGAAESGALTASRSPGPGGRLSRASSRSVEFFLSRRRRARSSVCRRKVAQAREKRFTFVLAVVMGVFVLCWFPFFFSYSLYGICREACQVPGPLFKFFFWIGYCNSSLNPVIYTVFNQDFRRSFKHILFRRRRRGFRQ

Experiment [2] deals with Beta-1 adrenergic receptor (Homo sapiens, UniProt P08588).
Experiment [3] has as its target Beta-2 adrenergic receptor (Homo sapiens, UniProt P07550).
Experiment [4] deals with T2, Alpha-2A adrenergic receptor (Homo sapiens, UniProt P08913).
T2 sequence (P08913 whole entry): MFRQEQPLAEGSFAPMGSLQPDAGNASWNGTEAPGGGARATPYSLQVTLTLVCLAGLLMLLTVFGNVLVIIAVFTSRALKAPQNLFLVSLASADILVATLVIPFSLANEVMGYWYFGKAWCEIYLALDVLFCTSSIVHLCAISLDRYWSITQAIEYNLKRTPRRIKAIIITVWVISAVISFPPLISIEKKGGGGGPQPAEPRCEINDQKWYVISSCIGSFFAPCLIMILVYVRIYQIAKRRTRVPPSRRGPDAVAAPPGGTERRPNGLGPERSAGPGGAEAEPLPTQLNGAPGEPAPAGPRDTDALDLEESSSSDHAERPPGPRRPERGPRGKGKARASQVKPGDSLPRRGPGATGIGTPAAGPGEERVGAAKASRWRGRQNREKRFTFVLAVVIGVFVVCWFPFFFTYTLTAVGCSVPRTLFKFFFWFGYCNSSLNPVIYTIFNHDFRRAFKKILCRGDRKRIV

In experiment [5] the target is T3, Alpha-2A adrenergic receptor [16-465] (Rattus norvegicus, UniProt P22909).
T3 construct: 16-465
T3 sequence (P22909 whole entry): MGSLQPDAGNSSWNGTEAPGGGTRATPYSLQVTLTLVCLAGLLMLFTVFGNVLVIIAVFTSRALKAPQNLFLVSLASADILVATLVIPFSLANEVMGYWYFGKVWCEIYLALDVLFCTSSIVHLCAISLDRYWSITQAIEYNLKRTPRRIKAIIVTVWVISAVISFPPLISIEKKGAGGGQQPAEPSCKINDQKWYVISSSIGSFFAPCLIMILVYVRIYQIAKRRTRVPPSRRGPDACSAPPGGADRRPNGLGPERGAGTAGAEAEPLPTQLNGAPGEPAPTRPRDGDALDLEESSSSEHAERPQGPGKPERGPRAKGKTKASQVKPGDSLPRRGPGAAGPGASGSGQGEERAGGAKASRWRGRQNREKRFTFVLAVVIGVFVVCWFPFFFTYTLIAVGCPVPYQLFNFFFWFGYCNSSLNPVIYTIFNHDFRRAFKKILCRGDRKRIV

Chain of Beta-2 adrenergic receptor (P07550 whole entry): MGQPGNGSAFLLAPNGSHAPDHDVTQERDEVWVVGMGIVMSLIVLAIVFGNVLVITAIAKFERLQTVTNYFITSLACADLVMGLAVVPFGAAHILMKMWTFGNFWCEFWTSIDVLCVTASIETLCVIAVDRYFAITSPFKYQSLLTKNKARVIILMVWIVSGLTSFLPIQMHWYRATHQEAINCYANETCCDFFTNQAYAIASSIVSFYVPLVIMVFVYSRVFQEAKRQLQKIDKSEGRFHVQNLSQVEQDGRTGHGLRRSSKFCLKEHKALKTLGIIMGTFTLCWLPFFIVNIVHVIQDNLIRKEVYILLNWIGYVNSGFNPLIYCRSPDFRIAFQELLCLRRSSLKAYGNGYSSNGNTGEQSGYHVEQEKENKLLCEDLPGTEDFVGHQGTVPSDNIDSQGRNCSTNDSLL
Chain of Beta-1 adrenergic receptor (P08588 whole entry): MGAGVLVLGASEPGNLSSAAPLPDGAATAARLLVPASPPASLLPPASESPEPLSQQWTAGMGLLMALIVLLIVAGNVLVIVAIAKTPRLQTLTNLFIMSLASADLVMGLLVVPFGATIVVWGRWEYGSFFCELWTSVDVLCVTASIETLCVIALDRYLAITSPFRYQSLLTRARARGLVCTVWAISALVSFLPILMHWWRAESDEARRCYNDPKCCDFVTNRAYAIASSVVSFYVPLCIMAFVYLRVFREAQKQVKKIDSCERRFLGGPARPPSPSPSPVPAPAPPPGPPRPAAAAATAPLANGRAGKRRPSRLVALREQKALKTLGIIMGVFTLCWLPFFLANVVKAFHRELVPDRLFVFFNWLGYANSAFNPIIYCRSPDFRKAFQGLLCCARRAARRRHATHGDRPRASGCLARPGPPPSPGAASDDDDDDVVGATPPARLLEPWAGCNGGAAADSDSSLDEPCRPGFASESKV

For `Cc1cccc([C@@H](C)c2cnc[nH]2)c1C`, in experiment [1], the Ki was 15.1 nM and 2.51 nM.

Take `NC1=NC2(CCc3ccccc3C2)CO1` (stereo not given) [S18616]: the Ki in experiment [2] was 1000 nM; in experiment [3] it was 1000 nM; in experiment [4] it was 0.562 nM and 0.631 nM and 0.316 nM; in experiment [5], 0.251 nM.
